Like-named read-outs stand apart in the source and are kept apart here.
Molecular target: T1, Human M4 (Homo sapiens, UniProt P08173)
T1 construct: expressed in transfected cells
T1 sequence (P08173 1-479): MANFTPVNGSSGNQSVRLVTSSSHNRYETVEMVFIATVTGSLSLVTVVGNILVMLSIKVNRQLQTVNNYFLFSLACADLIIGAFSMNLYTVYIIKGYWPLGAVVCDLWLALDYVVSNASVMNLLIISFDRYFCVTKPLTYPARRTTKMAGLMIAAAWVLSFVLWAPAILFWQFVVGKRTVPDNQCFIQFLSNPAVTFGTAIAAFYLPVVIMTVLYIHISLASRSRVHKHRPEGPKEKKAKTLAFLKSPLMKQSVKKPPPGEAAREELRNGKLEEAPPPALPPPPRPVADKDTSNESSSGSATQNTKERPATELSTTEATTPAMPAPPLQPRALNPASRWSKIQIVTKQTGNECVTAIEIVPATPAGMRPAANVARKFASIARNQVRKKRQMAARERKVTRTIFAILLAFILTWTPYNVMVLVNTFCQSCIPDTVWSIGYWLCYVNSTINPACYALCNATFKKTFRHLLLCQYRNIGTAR
Experiment: mAChR M4 cell-based functional assay (calcium flux, potentiation of EC20 acetylcholine response), hM4-Gqi5 CHO-K1 cells
Details: for Emax at 30 µM: % ACh maximum at 30 μM; for EC50: calcium flux, read-out: Human M4 EC50
Summary of the method: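 CHO-K1 cells stably expressing human M4 with chimeric Gqi5, loaded with Fluo-4 AM 50 min at 37 °C; calcium flux read by FDSS. 11-point 1:3 compound curves added, then EC20 acetylcholine at 144 s; potentiation of the EC20 response fitted by four-parameter logistic to give EC50 and Emax.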

[1] = CHO-K1, Table 3, Human M4, read-out: Emax (% ACh maximum at 30 μM)
[2] = Table 3, potentiation of EC20 acetylcholine response, CHO-K1 cells
[3] = hM4-Gqi5 CHO-K1 cells, PAM of EC20 acetylcholine
[4] = CHO-K1, Table 4, Human M4, read-out: Emax (% ACh maximum at 30 μM)
[5] = Table 4, potentiation of EC20 acetylcholine response, CHO-K1 cells
[6] = CHO-K1, human M4, read-out: Emax

| Emax at 30 µM [1] | EC50 [2] | EC50 [3] | Emax at 30 µM [6] | Structure (SMILES) | other results |
| --- | --- | --- | --- | --- | --- |
|  |  | 4510 nM |  | Cc1c(N2CCc3ncc(C#N)cc3C2)nn2cnnc2c1C [Compound 3, 6-(7,8-Dimethyl-[1,2,4]triazolo[4,3-b]pyridazin-6-yl)-7,8-dihydro-5H-1,6-naphthyridine-3-carbonitrile] | Emax (CHO-K1): 69% |
| 102% | 265 nM |  |  | Cc1ccc(Oc2cnc3c(c2)CN(c2nn4cnnc4c(C)c2C)CC3)c(F)c1 [Compound 289, 6-(7,8-dimethyl-[1,2,4]triazolo[4,3-b]pyridazin-6-yl)-3-(2-fluoro-4-methylphenoxy)-5,6,7,8-tetrahydro-1,6-naphthyridine] |  |
| 77% | 578 nM |  |  | COc1ccc(-c2cnc3c(c2)CN(c2nn4c(C(F)(F)F)nnc4c(C)c2C)CC3)cn1 [Compound 258, 6-(7,8-dimethyl-3-(trifluoromethyl)-[1,2,4]triazolo[4,3-b]pyridazin-6-yl)-3-(6-methoxypyridin-3-yl)-5,6,7,8-tetrahydro-1,6-naphthyridine] |  |
| 93% | 206 nM |  |  | Cc1ccc(-c2cnc3c(c2)CN(c2nn4cnnc4cc2C)CC3)cn1 [Compound 198, 6-(7-methyl-[1,2,4]triazolo[4,3-b]pyridazin-6-yl)-3-(6-methylpyridin-3-yl)-5,6,7,8-tetrahydro-1,6-naphthyridine] |  |
|  |  | 798 nM | 47% | Cc1c(N2CCc3ncc(NCc4cccc(F)c4)cc3C2)nn2cnnc2c1C [Compound 18, 6-(7,8-dimethyl-[1,2,4]triazolo[4,3-b]pyridazin-6-yl)-N-[(3-fluorophenyl)methyl]-7,8-dihydro-5H-1,6-naphthyridin-3-amine] |  |
|  |  | 1790 nM | 106% | Cc1c(N2CCc3ncc(Nc4cc(F)cc(F)c4F)cc3C2)nn2c(C(F)(F)F)nnc2c1C [Compound 91, 6-[7,8-dimethyl-3-(trifluoromethyl)-[1,2,4]triazolo[4,3-b]pyridazin-6-yl]-N-(2,3,5-trifluorophenyl)-7,8-dihydro-5H-1,6-naphthyridin-3-amine] |  |
|  |  | 628 nM | 102% | Cc1c(N2CCc3ncc(-c4ccn(C)n4)cc3C2)nn2cnnc2c1C [Compound 2, 6-(7,8-dimethyl-[1,2,4]triazolo[4,3-b]pyridazin-6-yl)-3-(1-methylpyrazol-3-yl)-7,8-dihydro-5H-1,6-naphthyridine] |  |
|  |  | 49.7 nM | 97% | [2H]c1nnc2c(C)c(C)c(N3CCc4ncc(Nc5cc(F)ccc5F)cc4C3)nn12 [Compound 72, 6-(3-deuterio-7,8-dimethyl-[1,2,4]triazolo[4,3-b]pyridazin-6-yl)-N-(2,5-difluorophenyl)-7,8-dihydro-5H-1,6-naphthyridin-3-amine] |  |

Second part, the molecule before the results:

| Structure (SMILES) | Emax at 30 µM [1] | EC50 [2] | EC50 [3] | Emax at 30 µM [6] | other results |
| --- | --- | --- | --- | --- | --- |
| COc1nc(Cl)ccc1-c1cnc2c(c1)CN(c1nn3cnnc3c(C)c1C)CC2 [Compound 174, 3-(6-chloro-2-methoxypyridin-3-yl)-6-(7,8-dimethyl-[1,2,4]triazolo[4,3-b]pyridazin-6-yl)-5,6,7,8-tetrahydro-1,6-naphthyridine] | 85% | 1070 nM |  |  |  |
| Cc1c(N2CCc3ncc(C(F)(F)F)cc3C2)nn2c(C(F)(F)F)nnc2c1C [Compound 321, 6-(7,8-dimethyl-3-(trifluoromethyl)-[1,2,4]triazolo[4,3-b]pyridazin-6-yl)-3-(trifluoromethyl)-5,6,7,8-tetrahydro-1,6-naphthyridine] |  |  |  |  | Emax at 30 µM [4]: 72%; EC50 [5]: 270 nM |
| Cc1c(N2CCc3ncc(-c4ccc(N5CCCCC5)nc4)cc3C2)nn2cnnc2c1C [Compound 185, 6-(7,8-dimethyl-[1,2,4]triazolo[4,3-b]pyridazin-6-yl)-3-(6-(piperidin-1-yl)pyridin-3-yl)-5,6,7,8-tetrahydro-1,6-naphthyridine] | 86% | 333 nM |  |  |  |
| Cc1ccccc1C(=O)Nc1cnc2c(c1)CN(c1nn3cnnc3c(C)c1C)CC2 [Compound 156, N-(6-(7,8-dimethyl-[1,2,4]triazolo[4,3-b]pyridazin-6-yl)-5,6,7,8-tetrahydro-1,6-naphthyridin-3-yl)-2-methylbenzamide] | 70% | 4210 nM |  |  |  |
| Cc1c(N2CCc3ncc(-c4ccnn4C)cc3C2)nn2cnnc2c1C [Compound 137, 6-(7,8-dimethyl-[1,2,4]triazolo[4,3-b]pyridazin-6-yl)-3-(2-methylpyrazol-3-yl)-7,8-dihydro-5H-1,6-naphthyridine] |  |  | 295 nM | 99% |  |
| Cc1c(N2CCc3ncc(-c4cnn(Cc5ccccc5)c4)cc3C2)nn2cnnc2c1C [Compound 63, 3-(1-benzylpyrazol-4-yl)-6-(7,8-dimethyl-[1,2,4]triazolo[4,3-b]pyridazin-6-yl)-7,8-dihydro-5H-1,6-naphthyridine] |  |  | 262 nM | 94% |  |
| Cc1c(N2CCc3ncc(-c4cnn(CC5CC5)c4)cc3C2)nn2c(C)nnc2c1C [Compound 89, 3-[1-(cyclopropylmethyl)pyrazol-4-yl]-6-(3,7,8-trimethyl-[1,2,4]triazolo[4,3-b]pyridazin-6-yl)-7,8-dihydro-5H-1,6-naphthyridine] |  |  | 291 nM | 91% |  |
| Cc1c(N2CCc3ncc(-c4ccc(N5CC[C@H](F)C5)nc4)cc3C2)nn2c(C(F)(F)F)nnc2c1C [Compound 250, (S)-6-(7,8-dimethyl-3-(trifluoromethyl)-[1,2,4]triazolo[4,3-b]pyridazin-6-yl)-3-(6-(3-fluoropyrrolidin-1-yl)pyridin-3-yl)-5,6,7,8-tetrahydro-1,6-naphthyridine] | 60% | 1250 nM |  |  |  |
| Cc1c(N2CCc3ncc(OCc4ccccc4)cc3C2)nn2cnnc2c1C [Compound 265, 3-(benzyloxy)-6-(7,8-dimethyl-[1,2,4]triazolo[4,3-b]pyridazin-6-yl)-5,6,7,8-tetrahydro-1,6-naphthyridine] | 74% | 724 nM |  |  |  |
| Cc1c(N2CCc3ncc(Nc4ccnn4C)cc3C2)nn2cnnc2c1C [Compound 164, 6-(7,8-dimethyl-[1,2,4]triazolo[4,3-b]pyridazin-6-yl)-N-(1-methyl-1H-pyrazol-5-yl)-5,6,7,8-tetrahydro-1,6-naphthyridin-3-amine] | 109% | 152 nM |  |  |  |
| Cc1c(N2CCc3ncc(N4CCOC(c5ccccn5)C4)cc3C2)nn2c(C(F)(F)F)nnc2c1C (stereo not shown) [Compound 327, 4-(6-(7,8-dimethyl-3-(trifluoromethyl)-[1,2,4]triazolo[4,3-b]pyridazin-6-yl)-5,6,7,8-tetrahydro-1,6-naphthyridin-3-yl)-2-(pyridin-2-yl)morpholine] |  |  |  |  | Emax at 30 µM [4]: 68%; EC50 [5]: 1310 nM |
| Cc1c(C2CC2)c(N2CCc3ncc(N4CCO[C@H](C)C4)cc3C2)nn2cnnc12 [Compound 348, (R)-4-(6-(7-cyclopropyl-8-methyl-[1,2,4]triazolo[4,3-b]pyridazin-6-yl)-5,6,7,8-tetrahydro-1,6-naphthyridin-3-yl)-2-methylmorpholine] |  |  |  |  | Emax at 30 µM [4]: 66%; EC50 [5]: 1850 nM |
| Cc1c(N2CCc3ncc(-c4cccnc4C(F)(F)F)cc3C2)nn2cnnc2c1C [Compound 172, 6-(7,8-dimethyl-[1,2,4]triazolo[4,3-b]pyridazin-6-yl)-3-(2-(trifluoromethyl)pyridin-3-yl)-5,6,7,8-tetrahydro-1,6-naphthyridine] | 73% | 3530 nM |  |  |  |
| Cc1c(N2CCc3ncc(C(=O)NCc4ccc(C(C)(C)O)cc4)cc3C2)nn2cnnc2c1C [Compound 115, 6-(7,8-dimethyl-[1,2,4]triazolo[4,3-b]pyridazin-6-yl)-N-[[4-(1-hydroxy-1-methyl-ethyl)phenyl]methyl]-7,8-dihydro-5H-1,6-naphthyridine-3-carboxamide] |  |  | 4180 nM | 73% |  |
| Cc1cc2nccn2nc1N1CCc2ncc(-c3cn(C)nc3C)cc2C1 [Compound 108, 3-(1,3-dimethylpyrazol-4-yl)-6-(7-methylimidazo[1,2-b]pyridazin-6-yl)-7,8-dihydro-5H-1,6-naphthyridine] |  |  | 399 nM | 85% |  |
| Cc1cc2nncn2nc1N1Cc2cc(N3CCOCC3)cnc2C(C)C1 (stereo not shown) [Compound 330, 4-(8-methyl-6-(7-methyl-[1,2,4]triazolo[4,3-b]pyridazin-6-yl)-5,6,7,8-tetrahydro-1,6-naphthyridin-3-yl)morpholine] |  |  |  |  | Emax at 30 µM [4]: 83%; EC50 [5]: 2150 nM |
| Cc1c(N2Cc3cc(N4CCOCC4)cnc3C(C)C2)nn2cnnc2c1C (stereo not shown) [Compound 331, 4-(6-(7,8-dimethyl-[1,2,4]triazolo[4,3-b]pyridazin-6-yl)-8-methyl-5,6,7,8-tetrahydro-1,6-naphthyridin-3-yl)morpholine] |  |  |  |  | Emax at 30 µM [4]: 94%; EC50 [5]: 700 nM |
| Cc1c(N2CCc3ncc(N4CCC5OCCCC5C4)cc3C2)nn2cnnc2c1C (stereo not shown) [Compound 25, 6-[6-(7,8-dimethyl-[1,2,4]triazolo[4,3-b]pyridazin-6-yl)-7,8-dihydro-5H-1,6-naphthyridin-3-yl]-2,3,4,4a,5,7,8,8a-octahydropyrano[3,2-c]pyridine] |  |  | 348 nM | 65% |  |

— US20250002507A1, “7,8-DIHYDRO-5H-1,6-NAPHTHYRIDINE DERIVATIVES AS POSITIVE ALLOSTERIC MODULATORS OF THE MUSCARINIC ACETYLCHOLINE RECEPTOR M4 FOR TREATING NEUROLOGICAL AND PSYCHIATRIC DISORDERS” (Vanderbilt University, priority 2021, published 2025)
